Experimental data taken from patent US20180044304A1, “1,3,4-OXADIAZOLE AND THIADIAZOLE COMPOUNDS AS IMMUNOMODULATORS” (AURIGENE DISCOVERY TECHNOLOGIES LIMITED, priority 2015, published 2018).

target: T1, Recombinant mouse PD-L1 (Mus musculus, UniProt Q9EP73); test: Rescue of mouse splenocyte proliferation in the presence of recombinant PD-L1 (CFSE proliferation assay); format: cell-based; settings: 100 nM compound; anti-CD3/CD28 stimulated C57 BL6 mouse splenocytes with PD-L1; 72 h; stimulated splenocyte proliferation = 100%; read-out: Percent rescue of splenocyte proliferation (@100 nM compound concentration)
T1 construct: Fc (Fc chimera); purchased R&D Systems 1019-B7-100
Procedure: Rescue of Mouse Splenocyte Proliferation in the Presence of Recombinant PD-L1
Recombinant mouse PD-L1 (rm-PDL-1, cat no: 1019-B7-100; R&D Systems) were used as the source of PD-L1.
Mouse splenocytes harvested from 6-8 weeks old C57 BL6 mice; RPMI 1640 (GIBCO, Cat #11875); DMEM with high glucose (GIBCO, Cat #D6429); Fetal Bovine Serum [Hyclone, Cat #SH30071.03]; Penicillin (10000 unit/mL)-Streptomycin(10,000 μg/mL) Liquid (GIBCO, Cat #15140-122); MEM Sodium Pyruvate solution 100 mM (100×), Liquid (GIBCO, Cat #11360); Nonessential amino acid (GIBCO, Cat #11140); L-Glutamine (GIBCO, Cat #25030); Anti-CD3 antibody (eBiosciences—16-0032); Anti-CD28 antibody (eBiosciences—16-0281); ACK lysis buffer (1 mL) (GIBCO, Cat #-A10492); Histopaque (density-1.083 gm/mL) (SIGMA 10831); Trypan blue solution (SIGMA-T8154); 2 mL Norm Ject Luer Lock syringe-(Sigma 2014-12); 40 μm nylon cell strainer (BD FALCON 35230); Hemacytometer (Bright line-SIGMA Z359629); FACS Buffer (PBS/0.1% BSA): Phosphate Buffered Saline (PBS) pH 7.2 (HiMedia TS1006) with 0.1% Bovine Serum Albumin (BSA) (SIGMA A7050) and sodium azide (SIGMA 08591); 5 mM stock solution of CFSE: CFSE stock solution was prepared by diluting lyophilized CFSE with 180 μl of Dimethyl sulfoxide (DMSO C2H6SO, SIGMA-D-5879) and aliquoted in to tubes for further use. Working concentrations were titrated from 10 μM to 1 μM. (eBioscience-650850-85); 0.05% Trypsin and 0.02% EDTA (SIGMA 59417C); 96-well format ELISA plates (Corning CLS3390); BD FACS caliber (E6016); Recombinant mouse B7-H1/PDL1 Fc Chimera, (rm-PD-L1 cat no: 1019-B7-100).
Splenocytes harvested in a 50 mL falcon tube by mashing mouse spleen in a 40 μm cell strainer were further treated with 1 mL ACK lysis buffer for 5 min at room temperature. After washing with 9 mL of RPMI complete media, cells were re-suspended in 3 mL of 1× PBS in a 15 mL tube. 3 mL of Histopaque was added carefully to the bottom of the tube without disturbing overlaying splenocyte suspension. After centrifuging at 800×g for 20 min at room temperature, the opaque layer of splenocytes was collected carefully without disturbing/mixing the layers. Splenocytes were washed twice with cold 1× PBS followed by total cell counting using Trypan Blue exclusion method and used further for cell based assays.
Splenocytes were cultured in RPMI complete media (RPMI+10% fetal bovine serum+1 mM sodium pyruvate+10,000 units/mL penicillin and 10,000 μg/mL streptomycin) and maintained in a CO2 incubator with 5% CO2 at 37° C.
CFSE is a dye that passively diffuses into cells and binds to intracellular proteins. 1×10^6 cells/mL of harvested splenocytes were treated with 5 μM of CFSE in pre-warmed 1× PBS/0.1% BSA solution for 10 min at 37° C. Excess CFSE was quenched using 5 volumes of ice-cold culture media to the cells and incubated on ice for 5 min. CFSE labelled splenocytes were further given three washes with ice cold complete RPMI media. CFSE labelled 1×10^5 splenocytes added to wells containing either MDA-MB231 cells (1×10^5 cells cultured in high glucose DMEM medium) or recombinant human PDL-1 (100 ng/mL) and test compounds. Splenocytes were stimulated with anti-mouse CD3 and anti-mouse CD28 antibody (1 μg/mL each) and the culture was further incubated for 72 h at 37° C. with 5% CO2. Cells were harvested and washed thrice with ice cold FACS buffer and % proliferation was analysed by flow cytometry with 488 nm excitation and 521 nm emission filters.
Percent splenocyte proliferation was analysed using cell quest FACS program and percent rescue of splenocyte proliferation by compound was estimated after deduction of % background proliferation value and normalising to % stimulated splenocyte proliferation (positive control) as 100%. • Stimulated splenocytes: Splenocytes+anti-CD3/CD28 stimulation • Background proliferation: Splenocytes+anti-CD3/CD28+PD-L1 • Compound proliferation: Splenocytes+anti-CD3/CD28+PD-L1+Compound […]

T1 sequence (Q9EP73 with tags, fused parts or gaps limits assumed): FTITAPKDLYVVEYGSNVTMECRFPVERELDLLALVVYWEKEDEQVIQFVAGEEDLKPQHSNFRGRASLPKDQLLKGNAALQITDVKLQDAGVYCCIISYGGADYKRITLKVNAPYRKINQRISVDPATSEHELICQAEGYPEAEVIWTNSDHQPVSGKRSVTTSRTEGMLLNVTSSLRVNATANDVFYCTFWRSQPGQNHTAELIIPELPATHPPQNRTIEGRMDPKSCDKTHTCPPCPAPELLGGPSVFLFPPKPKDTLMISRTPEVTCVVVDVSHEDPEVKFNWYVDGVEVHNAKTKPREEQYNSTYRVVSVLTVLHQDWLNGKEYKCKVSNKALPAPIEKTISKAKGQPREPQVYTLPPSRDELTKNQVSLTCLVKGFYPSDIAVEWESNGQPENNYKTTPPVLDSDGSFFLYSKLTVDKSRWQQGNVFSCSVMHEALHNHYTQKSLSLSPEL

| activation at 0.1 µM | Compound |
| --- | --- |
| 79% | NCCCC[C@H](N)c1nnc([C@H](CC(N)=O)NC(=O)N[C@@H](CCC(=O)O)C(=O)O)o1 [Compound 1] |
| 49% | CCC(C)[C@H](NC(=O)N[C@@H](CCC(=O)O)C(=O)O)c1nnc([C@@H](N)CCC(=O)O)o1 (stereo partly drawn) [Compound 2] |
| 70% | CC(O)[C@H](NC(=O)N[C@@H](CC(N)=O)c1nnc([C@@H](N)CCCCN)o1)C(=O)O (stereo partly drawn) [Compound 4] |
| 16% | CCC(C)[C@H](NC(=O)N[C@H](C(=O)O)C(C)O)c1nnc([C@@H](N)CO)o1 (stereo partly drawn) [Compound 5] |
| 30% | CC(O)[C@H](NC(=O)N[C@@H](CCCCN)c1nnc([C@@H](N)CO)o1)C(=O)O (stereo partly drawn) [Compound 6] |
| 29% | CC(O)[C@H](NC(=O)N[C@@H](Cc1ccccc1)c1nnc([C@@H](N)CO)o1)C(=O)O (stereo partly drawn) [Compound 7] |
| 60% | N[C@@H](Cc1ccc(O)cc1)c1nnc([C@@H]2CCCN2C(=O)N[C@@H](Cc2ccc(O)cc2)C(=O)O)o1 [Compound 8] |
| 29% | CC(O)[C@H](NC(=O)N[C@H](c1nnc([C@@H](N)C(C)O)o1)C(C)O)C(=O)O (stereo partly drawn) [Compound 9] |
| 34% | NC(=O)C[C@H](NC(=O)N[C@@H](CC(=O)O)C(=O)O)c1nnc([C@@H](N)CO)o1 [Compound 10] |
| 30% | NCCCC[C@H](N)c1nnc([C@H](CC(N)=O)NC(=O)N[C@@H](CO)C(=O)O)o1 [Compound 11] |
| 68% | CCC(C)[C@H](N)c1nnc([C@@H](NC(=O)N[C@@H](CCC(=O)O)C(=O)O)C(C)CC)o1 (stereo partly drawn) [Compound 12] |
| 29% | NCCCC[C@H](NC(=O)N[C@@H](CC(N)=O)c1nnc([C@@H](N)CO)o1)C(=O)O [Compound 13] |
| 23% | NC(=O)C[C@H](NC(=O)N[C@@H](Cc1ccccc1)C(=O)O)c1nnc([C@@H](N)CO)o1 [Compound 15] |
| 37% | CC(O)[C@H](NC(=O)N[C@@H](CC(N)=O)c1nnc([C@@H](N)CC(=O)O)o1)C(=O)O (stereo partly drawn) [Compound 16] |
| 41% | CC(O)[C@H](NC(=O)N[C@@H](CCC(=O)O)c1nnc([C@@H](N)CCCCN)o1)C(=O)O (stereo partly drawn) [Compound 18] |
| 74% | NC(=O)CC[C@H](NC(=O)N[C@@H](CO)c1nnc([C@@H](N)Cc2c[nH]c3ccccc23)o1)C(=O)O [Compound 20] |
| 47% | CSC[C@H](N)c1nnc([C@H](CC(N)=O)NC(=O)N[C@H](C(=O)O)C(C)O)o1 (stereo partly drawn) [Compound 24] |
| 66% | N[C@@H](CO)c1nnc([C@H](Cc2c[nH]c3ccccc23)NC(=O)N[C@@H](CC(=O)O)C(=O)O)o1 [Compound 28] |
